Data on three molecules can be found in US20100196342A1, “MOOD, MEMORY AND COGNITIVE FUNCTION WITH PYRIDOXAL 5'-PHOSPHATE” (priority 2007, published 2010).

One series concerns healthy people. The conditions noted are these: U.S. National Academy of Sciences recommendation; cited from earlier work.
The test system of another series is males, ages 70-79 years. The conditions noted are these: 20 mg daily for 3 months; cited from earlier work.
Series [1] relates to Human males aged between 65 and 90. The series is described as follows: Associative learning task (colour-number association recall) in aged males. The series is classed as in vivo. On the procedure: Human males aged between 65 and 90 are separated into four random groups: control, low dose of P5P (100 mg/day), medium dose of P5P (250 mg/day), and high dose of P5P (750 mg/day). All dosages are administered orally for 3 weeks before subjecting the patients to an associative learning task.
The patients are subjected to an associative learning task, as follows. Briefly, patients are comfortably seated in front of a computer. Patients are asked to learn the associations between six colors and the numbers 1-6, using trial and error. Subjects are then required to recall this association, a defined period of time after the associations are learned. Tests are repeated, with the defined period of time increasing, until the patients are no longer able to associate the colors with the numbers.

In another series the test system is P2 purinoceptors. Particulars: cited from earlier work.
Another series relates to healthy subjects. The series is described as follows: Phase I single ascending dose study, safety and tolerance. The series is classed as in vivo, human. Particulars: single oral dosages up to 4000 mg. The procedure: A Phase I, single center, single-dose, open-label, sequential ascending dose study to evaluate the safety and tolerance of pyridoxal-5′-phosphate, in an enteric-coated tablet, following a single dose of 250 mg, 750 mg, 1000 mg, and 4000 mg in healthy subjects under fasting conditions was conducted.
A total of 32 healthy, adult subjects signed the study-specific Informed Consent Form and were confined in the clinical study unit; of these subjects, 24 (6 subjects in each dose level; 3 males and 3 females) were dosed and were enrolled in the study; all of these enrolled subjects completed the study. Subjects were confined to the SFBC Anapharm Clinical Research Facility from at least 12 hours prior to drug administration until after the 24.0-hour post-dose blood draw.
Subjects enrolled in this study were members of the community at large. […] All participating subjects were judged eligible for the study when assessed against the inclusion and exclusion criteria. […]

Series [2] concerns Individuals diagnosed with mild depression. Kind of series: Assessment of level of depression by depression inventory scales and DSM-IV. Format: in vivo, human. The procedure: Individuals diagnosed with mild depression are divided into four groups at random: control, low dose of P5P (100 mg/day), medium dose of P5P (250 mg/day), and high dose of P5P (750 mg/day). All dosages are administered orally for 3 weeks.
The level of depression of the individuals is assessed, both before, and after treatment, using conventional methodologies. These include completion of several depression inventory questionnaire scales including the Cornell Scale for Depression in Dementia, Centre for Epidemiologic Studies Depression Scale, The Geriatric Depression Scale (Short Version), Beck Depression Inventory and the Zung Self-Rating Depression Scale as well as diagnosis by a trained professional according to the DSM-IV. These questionnaires measure depression through questions related to appetite, sadness, worthlessness/inadequacy, concentration, exhaustion, failure, retardation, socialization, isolation, anxiety, irritability, agitation, loss of interest, lack of energy, diurnal mood variation, insomnia, suicidal thoughts, low self-esteem, pessimism, mood congruent delusions, satisfaction, withdrawal, fulfillment, mood, fear, guilt, self-accusations, somatic preoccupation and loss of libido.

[3] abbreviates: 250 mg/day vs 750 mg/day orally for 3 weeks.
Where [4] appears, read: P5P 100, 250 or 750 mg/day orally for 3 weeks.

For `Cc1ncc(CO)c(CO)c1O` [pyridoxine], the “Tolerable Upper Intake Level” value in the series on healthy people was 100 mg.
For the molecule vitamin B6, the “information storage vs matched placebo group” value in the series on males, ages 70-79 years is “improved information storage”.
With `Cc1ncc(COP(=O)(O)O)c(C=O)c1O` [P5P, 3-hydroxy-2-methyl-5-[(phosphonooxy)methyl]-4-pyridine-carboxaldehyde], in series [1] (setting [3]), the “associative learning and memory, medium vs high dose group” value was “no significant difference”. In addition, the “time after which the number-colour association can be recalled, vs control patients” value in series [1] (setting [4]) is “significantly longer time”. Besides, the “effect on ATP induced calcium ion influx into cells” value in the series on P2 purinoceptors is listed as “inhibits”. The “tolerability (side effects, evidence of toxicity)” value in the series with healthy subjects is recorded as “well tolerated”. Also, in series [2] (setting [3]), the “level of depression, medium vs high dose group” value is given as “not significantly different”. Besides, the “level of depression, medium and high dose groups vs low dose group” value in series [2] (250 and 750 mg/day vs 100 mg/day orally for 3 weeks) is listed as “significantly less depressed”. Besides, in series [2] (setting [4]), the “level of depression vs control individuals” value was “significantly less depressed”.
